In brackets after ≈: the same amount, converted by molar mass. Read-outs that look alike come from different tables or passages of the source.
What was measured:
[1] = system: Serratia marcescens ATCC 14756; assay: Antimicrobial activity, serial dilution method on agar plate; assay type: cell-based; conditions: ATCC14756, read-out: Minimum Inhibitory Concentration (MIC)
[2] = system: Staphyrococcus aureus Newmann; assay: as above; assay type: cell-based; conditions: read-out: Minimum Inhibitory Concentration (MIC)
[3] = system: Micrococcus flavus ATCC 10240a; assay: as above; assay type: cell-based; conditions: ATCC10240A, read-out: Minimum Inhibitory Concentration (MIC)
[4] = system: Proteus mirabilis 1287; assay: as above; assay type: cell-based; conditions: read-out: Minimum Inhibitory Concentration (MIC)
[5] = system: Bacillus subtilis ATCC 6633; assay: as above; assay type: cell-based; conditions: ATCC6633, read-out: Minimum Inhibitory Concentration (MIC)
[6] = system: Staphyrococcus aureus FDA 209p; assay: as above; assay type: cell-based; conditions: read-out: Minimum Inhibitory Concentration (MIC)
[7] = system: Bacillus anthracis; assay: microbe, parasite or virus in culture; assay type: cell-based; conditions: read-out: Minimum Inhibitory Concentration (MIC)
[8] = system: Enterbactor cloacae 2; assay: Antimicrobial activity, serial dilution method on agar plate; assay type: cell-based; conditions: read-out: Minimum Inhibitory Concentration (MIC)
[9] = system: Streptococcus faecalis IFO 12580; assay: as above; assay type: cell-based; conditions: Enterococcus faecalis, IFO12580, read-out: Minimum Inhibitory Concentration (MIC)
[10] = system: Klebsiella pneumoniae ST-101; assay: as above; assay type: cell-based; conditions: ST101, read-out: Minimum Inhibitory Concentration (MIC)
[11] = system: Esherichia coli NIHJ JC-2; assay: as above; assay type: cell-based; conditions: read-out: Minimum Inhibitory Concentration (MIC)
[12] = system: Enterbactor aerogenes IFO 12979; assay: as above; assay type: cell-based; conditions: read-out: Minimum Inhibitory Concentration (MIC)
[13] = system: Pseudomonas aeruginosa ATCC 10145; assay: as above; assay type: cell-based; conditions: ATCC10145, read-out: Minimum Inhibitory Concentration (MIC)
[14] = system: Candida albicans KYU; assay: as above; assay type: cell-based; conditions: read-out: Minimum Inhibitory Concentration (MIC)
[15] = system: Bacillus cereus ATCC 11778; assay: as above; assay type: cell-based; conditions: ATCC11778, read-out: Minimum Inhibitory Concentration (MIC)
[16] = system: Sarcina lutea ATCC 9341; assay: as above; assay type: cell-based; conditions: Micrococcus luteus, ATCC9341, read-out: Minimum Inhibitory Concentration (MIC)
[17] = system: Streptomyces viridans; assay: as above; assay type: cell-based; conditions: read-out: Minimum Inhibitory Concentration (MIC)
[18] = system: Salmonella typhimurium kh; assay: as above; assay type: cell-based; conditions: Salmonella enterica, read-out: Minimum Inhibitory Concentration (MIC)
[19] = system: Esherichia coli NIHJ; assay: as above; assay type: cell-based; conditions: read-out: Minimum Inhibitory Concentration (MIC)
[20] = Acute toxicity; conditions: rat, in vivo, rats, dd strain, 18 to 22 g, fasted 12 hours
Description: Further, the acute toxicity of the compounds of the present invention having the formula (I) was determined by intravenous administration (i.v.) and oral administration (p.o.) in 5 to 6 groups of rats (dd strain; body weight, 18 to 22 g; 10 rats in each group) which had been fasted for 12 hours prior to the test.

[21] = iv, read-out: LD50 (50% lethal dose), i.v.
[22] = po, read-out: LD50 (50% lethal dose), p.o.

SMILES | MIC [1] [µg/mL] | MIC [2] [µg/mL] | MIC [3] [µg/mL] | MIC [4] [µg/mL] | MIC [5] [µg/mL] | MIC [6] [µg/mL] | MIC [7] [µg/mL] | MIC [8] [µg/mL] | MIC [9] [µg/mL] | MIC [10] [µg/mL] | MIC [11] [µg/mL] | MIC [12] [µg/mL] | MIC [13] [µg/mL] | MIC [14] [µg/mL] | MIC [15] [µg/mL] | MIC [16] [µg/mL] | MIC [17] [µg/mL] | MIC [18] [µg/mL] | MIC [19] [µg/mL] | LD50 [20, 21] [mg/kg] | further results
NNC(=O)c1cn2c3c(cc(F)cc3c1=O)C1CCCCC12 (stereo not drawn) [Compound 10, 2-Fluoro-7a,8,9,10,11,11a-hexahydro-4-oxo-4H-pyrido[3,2,1-jk]carbazol-5-carbohydrazide] | 25 (≈ 83 µM) | 50 (≈ 166 µM) | > 100 | 50 (≈ 166 µM) | 25 (≈ 83 µM) | 50 (≈ 166 µM) | 100 (≈ 332 µM) | 12.5 (≈ 41.5 µM) | > 100 | 12.5 (≈ 41.5 µM) | 25 (≈ 83 µM) | 12.5 (≈ 41.5 µM) | > 100 | > 500 | 100 (≈ 332 µM) | > 100 | > 100 | 25 (≈ 83 µM) | 25 (≈ 83 µM) | 100 | LD50 [20, 22]: 3500 mg/kg
O=C(NN=Cc1ccc([N+](=O)[O-])o1)c1cn2c3c(cc(F)cc3c1=O)C1CCCCC12 (stereo not drawn) [Compound 11] | 12.5 (≈ 29.5 µM) | 12.5 (≈ 29.5 µM) | 100 (≈ 236 µM) | 12.5 (≈ 29.5 µM) | 3.2 (≈ 7.54 µM) | 12.5 (≈ 29.5 µM) | 6.3 (≈ 14.8 µM) | 6.3 (≈ 14.8 µM) | > 100 | 6.3 (≈ 14.8 µM) | 12.5 (≈ 29.5 µM) | 6.3 (≈ 14.8 µM) | > 100 | > 500 | 12.5 (≈ 29.5 µM) | 100 (≈ 236 µM) | > 100 | 12.5 (≈ 29.5 µM) | 12.5 (≈ 29.5 µM) | 180 | LD50 [20, 22]: 3000 mg/kg
CC1CCN(CCOC(=O)c2cn3c4c(cc(F)cc4c2=O)C2CCCCC23)CC1 (stereo not drawn) [Compound 12] | 12.5 (≈ 30.3 µM) | 6.3 (≈ 15.3 µM) | 50 (≈ 121 µM) | 12.5 (≈ 30.3 µM) | 3.2 (≈ 7.76 µM) | 6.3 (≈ 15.3 µM) | 6.3 (≈ 15.3 µM) | 6.3 (≈ 15.3 µM) | 50 (≈ 121 µM) | 6.3 (≈ 15.3 µM) | 6.3 (≈ 15.3 µM) | 6.3 (≈ 15.3 µM) | > 100 | > 500 | 6.3 (≈ 15.3 µM) | 50 (≈ 121 µM) | 100 (≈ 242 µM) | 12.5 (≈ 30.3 µM) | 6.3 (≈ 15.3 µM) | 130 | LD50 [20, 22]: 2000 mg/kg

Reference: patent US4293694A, “Pyrido[3,2,1-jk]carbazols” (Otsuka Pharmaceutical Co., Ltd., priority 1979, dated 1981)
